PMC7136958, “Targeting the pregnane X receptor using microbial metabolite mimicry” (EMBO Molecular Medicine, 2020)
“And” between values parts separate entries of the source, which are not always exact repeats. Equal values may be shown once.

Columns and labels:
FXR = molecular target: T1, FXR (Homo sapiens, UniProt Q96RI1); experiment: hFXR TR-FRET (LanthaScreen FXR Coactivator Assay); assay type: biochemical; conditions: 1 nM to 25 µM
T1 construct: purchased Invitrogen PV4833
Protocol: volume of 20 µl in 384-well black plates, with concentrations of tested compounds in the range from 1
nm, on Infinite F200 microplate reader (Tecan Group Ltd, Switzerland).
All experiments were done in tetraplicates and as two independent experiments. Final EC50 values were obtained by processing the data with GraphPad Prism 6 using standard curve interpolation (sigmoidal, 4PL, variable slope).

468 kinases = experiment: DiscoverX scanMAX kinase panel (KINOMEscan); assay type: binding, human; conditions: for kinase inhibition (in words): panel of 468 kinases
Protocol: Kinase Assays. The kinase inhibition assays were conducted by DiscoverX on a platform assay by Ambit BioSciences as described previously 16,17. FKK6 was screened at a single concentration of 10 μM in duplicate. The scanMAXSM assay panel measures 468 kinases
(https://www.discoverx.com/services/drug-discovery-development-services/kinase-profiling/kinomescan/scanmax). The assays measure a compound’s ability to inhibit binding of a canonical ligand substrate, with 0% activity of control corresponding to full inhibition and 100% activity of control to no inhibition. […]
quantitative measure of compound selectivity based on the number of kinase hits (enzymes inhibited) divided by the total number of distinct kinases tested. Three different activity cut-offs were analyzed – S(35) or % activity of control < 35; S(10) or % activity of control < 10; and S(1) or % activity of control < 1. To illustrate effect or lack of effect, an image of the entire family of kinases tested were grouped by families and S(35). The TREEspot Kinase dendrogram image was generated using TREEspot™ Software Tool and reprinted with permission from KINOME scan®, a division of DiscoveRx […]

[1] = tested on: IL-8 mRNA in Caco-2 cells; experiment: IL-8 mRNA in Caco-2 monolayers exposed to cytokine cocktail; assay type: cell-based, human; parameters: key to IL8 mRNA: relative IL-8 mRNA level, normalized to GAPDH; conditions: for IL8 mRNA: Caco-2 cells, triplicate
Protocol: Caco‐2 cell (ATCC, Manassas, VA) passages 25–35 were maintained and expanded in culture flasks in Dulbecco's modified Eagle's medium (DMEM) with 10% FBS and 1× antibiotic–antimycotic. The cells were kept in a humidified 37°C incubator with 5% CO2. Media were changed every 2–3 days, and cells were passaged 1–2 times a week. For all experiments, Caco‐2 cells (5 × 10^4 cells/ml) were seeded into 12‐well Transwell inserts or coverslips and cultured for 3 weeks. HIOs were generated from iPSCs as described previously (Spence et al, 2011), with some modifications. The iPSC cell line IISH1i‐BM1 (WiCell, Madison, WI) was cultured on Matrigel plates to 80% confluence in mTeSR™ 1 medium (Stem Cell Technologies, Seattle, WA) and differentiated to endoderm using Definitive Endoderm Kit (Stem Cell Technologies., Seattle, WA) for 4 days with daily media changes. Endoderm was then differentiated to hindgut for 5 days with the addition of FGF‐4 (500 ng/ml; Peprotech, Rocky Hill, NJ) and Chir99021 (3 μM; Cayman, Ann Arbor, MI) in RPMI media supplemented with 2% FBS. Floating hindgut spheroids were collected on days 3–5 of hindgut differentiation and suspended in Matrigel beads for HIO differentiation. HIOs were maintained in WENRAS media (Fujii et al, 2015), which maintains proliferation in the culture. Stock HIOs were passaged weekly by removing Matrigel with Cell Recovery Solution (Corning, NY) and mechanically breaking up organoids with pipetting. HIOs were seeded into new Matrigel beads at a 1:3 split, using WENRAS with added Rock Inhibitor Y‐27632 (10 μM) and Chir99021 (3 μM; Cayman., Ann Arbor, MI) for the first 2 days of culture.
Relative mRNA levels of IL‐8 and IL‐6 were determined using quantitative real‐time PCR, with normalization to GAPDH. RNA was isolated using an RNeasy Mini Kit (Qiagen) as per the manufacturer's instructions. On column DNase (Qiagen) was used to remove any contaminating DNA. Next, cDNA was formed using iScript cDNA Synthesis Kit (Bio‐Rad) and 100 ng RNA. qRT–PCR was performed with SsoAdvanced Universal SYBR Green Kit (Bio‐Rad). The following primers were used: IL‐8 Forward: […]; IL‐8 Reverse: […]; IL‐6 Forward: […]; IL‐6 Reverse: […]; GAPDH Forward: […]; GAPDH Reverse: […]. For immunofluorescent staining of NF‐ĸB translocation to the cell nucleus, HIOs and Caco‐2 cell monolayers were fixed in 4% formaldehyde (in 1 × PBS) overnight at 4°C. The formaldehyde was removed by washing with 1 × PBS, and an antigen retrieval step was performed by incubating in 10 mM sodium citrate buffer in a vegetable steamer for 20 min. The samples were then blocked with normal donkey serum (10% in PBS with 0.3% Triton X‐100) for 1 h. Samples were incubated overnight with primary antibodies: rabbit anti‐NF‐κB p65 (D14E12 # 8242, 1:400 dilution, Cell Signaling Technology, Danvers MA), then immersed in Alexa Fluor® 555 donkey anti‐rabbit secondary antibody (A‐31572, Life Technologies) at a 1:500 dilution. Nuclei were stained with Hoechst 33342 (Life Technologies). The samples were then imaged using a Zeiss LSM880 Confocal/Multiphoton Upright Microscope, with 3‐D image rendering using Volocity. For controls, normal rabbit IgG (#2729S, Life Technologies) was used.

S. typhimurium 14038 = experiment: Salmonella invasion in iPSC-derived human intestinal organoids; assay type: cell-based, Salmonella typhimurium; conditions: for salmonella invasion vs cytokines alone: 2, 4, 6, 12 h; for basal salmonella invasion: 10 and 25 μM; for Salmonella CFU/ml: HIO, triplicate
Protocol: FKK compounds were tested for their ability to prevent Salmonella invasion in vitro in non‐inflamed and inflamed cell cultures. Overnight cultures of S. typhimurium 14038 were diluted to OD600 0.01 and injected into with HIOs or immersed over Caco‐2 monolayers for 1 h at 37°C. The invasive ability of Salmonella was assessed using the gentamicin protection assay (Gagnon et al, 2013). Bacterial adhesion scenarios to the Caco‐2 surface were set up as described above. Non‐adhered bacteria were removed by washing twice in PBS, followed by incubation with 1 ml gentamicin (150 μg/ml in DMEM) for 1 h at 37°C to kill the adhered extracellular bacteria. Dead bacteria were removed by washing twice in PBS, followed by incubation with 500 μl 0.1% Triton X‐100 for 15 min at 37°C to lyse the HIOs and Caco‐2, and release the intracellular (invaded) bacteria. Serial fold dilutions and plating were then employed to determine CFU/ml. We normalized to total protein using Bradford assay.

[2] = compound 25µm, no cytokines, 2 hr
[3] = cytokines + compound 10µm, 2 hr
[4] = cytokines + compound 25µm, 2 hr
[5] = cytokines + compound 25µm, 12 hr
[6] = compound 10µm, no cytokines, 4 hr
[7] = compound 10µm, no cytokines, 12 hr
[8] = cytokines + compound 10µm, 12 hr

T1 sequence (Q96RI1 211-486 limits assumed): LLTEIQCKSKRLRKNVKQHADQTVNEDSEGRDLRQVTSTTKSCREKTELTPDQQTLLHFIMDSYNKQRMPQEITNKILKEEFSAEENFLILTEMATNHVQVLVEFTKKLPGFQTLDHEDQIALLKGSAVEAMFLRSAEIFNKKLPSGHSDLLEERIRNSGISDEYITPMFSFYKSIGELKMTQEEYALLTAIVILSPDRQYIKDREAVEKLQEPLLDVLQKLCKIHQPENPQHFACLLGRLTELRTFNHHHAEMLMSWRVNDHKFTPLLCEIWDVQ

Structure (SMILES): O=C(c1ccncc1)c1cc2ccccc2n1S(=O)(=O)c1ccccc1 [FKK5, (1-(phenylsulfonyl)-1H-indol-2-yl)(pyridin-4-yl)methanone]
- FXR ligand agonist activity (FXR): did not observe any significant ligand agonist activity
- kinase inhibition (in words) (468 kinases): neither of these compounds inhibited the kinases tested
- IL8 mRNA [1, 2]: 11.5603 and 13.1808 and 10.1297
- IL8 mRNA [1, 3]: 168.69 and 99.441 and 183.41
- IL8 mRNA [1, 4]: 36.3596 and 45.4346 and 54.4045
- IL8 mRNA [1, 5]: 434.784 and 305.562 and 246.223
- salmonella invasion vs cytokines alone (S. typhimurium 14038): significantly reduced
- basal salmonella invasion (S. typhimurium 14038): no significant effect
- Salmonella CFU/ml (S. typhimurium 14038; [6]): 557 CFU/ml and 514 CFU/ml and 578 CFU/ml
- Salmonella CFU/ml (S. typhimurium 14038; [7]): 447 CFU/ml and 508 CFU/ml and 480 CFU/ml
- Salmonella CFU/ml (S. typhimurium 14038; [8]): 459 CFU/ml and 469 CFU/ml and 548 CFU/ml
- Salmonella CFU/ml (S. typhimurium 14038; [5]): 474 CFU/ml and 339 CFU/ml and 439 CFU/ml

Structure (SMILES): C#CCC(O)(c1ccncc1)c1cc2ccccc2n1S(=O)(=O)c1ccccc1 (stereo not drawn) [FKK6]
- FXR ligand agonist activity (FXR): did not observe any significant ligand agonist activity
- Interactions Mapped (TREEspot) (468 kinases; 10 μM): 0
- Number of Hits, S(1) (468 kinases; 10 μM, 403 non-mutant kinases): 0
- Number of Hits, S(10) (468 kinases; 10 μM, 403 non-mutant kinases): 0
- Number of Hits, S(35) (468 kinases; 10 μM, 403 non-mutant kinases): 0
- kinase inhibition (in words) (468 kinases): neither of these compounds inhibited the kinases tested
- cytokine-induced IL-8 mRNA ([1]; 25 μM): significantly reduced
- IL8 mRNA ([1]; compound 10µm, no cytokines, 2 hr): 2.554 and 1.974 and 1.5894
- IL8 mRNA [1, 7]: 7.6 and 8.533 and 8.223
- IL8 mRNA [1, 2]: 55.8723 and 30.5592 and 31.4544
- IL8 mRNA [1, 3]: 40.0864 and 49.4401 and 49.4954
- IL8 mRNA [1, 8]: 83.1628 and 71.3481 and 97.9287
- salmonella invasion vs cytokines alone (S. typhimurium 14038): significantly reduced
- basal salmonella invasion (S. typhimurium 14038): no significant effect
- Salmonella CFU/ml (S. typhimurium 14038; [6]): 370 CFU/ml and 296 CFU/ml and 591 CFU/ml
- Salmonella CFU/ml (S. typhimurium 14038; compound 25µm, no cytokines, 6 hr): 277 CFU/ml and 280 CFU/ml and 238 CFU/ml
- Salmonella CFU/ml (S. typhimurium 14038; [3]): 234 CFU/ml and 133 CFU/ml and 134 CFU/ml
- Salmonella CFU/ml (S. typhimurium 14038; [8]): 362 CFU/ml and 381 CFU/ml and 340 CFU/ml
- Salmonella CFU/ml (S. typhimurium 14038; [4]): 193 CFU/ml and 132 CFU/ml and 164 CFU/ml
- Salmonella CFU/ml (S. typhimurium 14038; cytokines + compound 25µm, 4 hr): 200 CFU/ml and 140 CFU/ml and 164 CFU/ml
- Salmonella CFU/ml (S. typhimurium 14038; cytokines + compound 25µm, 6 hr): 189 CFU/ml and 151 CFU/ml and 140 CFU/ml
